US20190367516A1 (Bayer Pharma Aktiengesellschaft, priority 2015, published 2019)
Where two headings read alike, the source gives them in different places.

Experiments:
human M2 receptor [1] = target: T1, human M2 receptor (Homo sapiens, UniProt P08172); format: cell-based; details: α >1 = positive cooperativity
T1 sequence (P08172 1-466): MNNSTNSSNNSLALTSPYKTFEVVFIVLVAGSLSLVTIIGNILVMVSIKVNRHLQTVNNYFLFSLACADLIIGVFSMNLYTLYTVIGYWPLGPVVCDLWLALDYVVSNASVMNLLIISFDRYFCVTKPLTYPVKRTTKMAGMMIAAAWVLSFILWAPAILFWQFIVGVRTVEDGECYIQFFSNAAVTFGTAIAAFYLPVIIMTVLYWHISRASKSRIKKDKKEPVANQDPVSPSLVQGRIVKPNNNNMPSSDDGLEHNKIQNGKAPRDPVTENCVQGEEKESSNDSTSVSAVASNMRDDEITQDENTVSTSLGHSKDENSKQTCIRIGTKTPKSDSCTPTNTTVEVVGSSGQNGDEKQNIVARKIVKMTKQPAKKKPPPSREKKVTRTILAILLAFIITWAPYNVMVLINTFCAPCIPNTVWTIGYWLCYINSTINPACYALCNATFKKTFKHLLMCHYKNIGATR

human M2 receptor [2] = target: T1, human M2 receptor; details: for Efficiency: boosting of the acetylcholine effect at EC20 acetylcholine concentration; for Emax: read-out: Efficiency, boosting of the acetylcholine effect at EC20 acetylcholine concentration
[3] = shift of acetylcholine dose-response curve (Allosteric EC50 shift)
[4] = Receptor activity EC50, allosteric potency at EC20 acetylcholine, M2-GIRK1/4 reporter cells, in some cases mean of two or more determinations
[5] = shift in the acetylcholine dose-response curve (Allosteric EC50 shift, GraphPad PRISM)
[6] = Receptor activity EC50, M2-GIRK1/4 activation test, acetylcholine at EC20, allosteric potency, in some cases mean values from two or more determinations

Cooperativity (alpha factor) (human M2 receptor [1]; [3]) | EC50 (human M2 receptor [2]; [4]) [µM] | Efficiency (human M2 receptor [2]; M2-GIRK1/4 reporter cells) [%] | Emax (human M2 receptor [2]; M2-GIRK1/4 reporter cells) [%] | Cooperativity (alpha factor) (human M2 receptor [1]; [5]) | EC50 (human M2 receptor [2]; [6]) [µM] | SMILES
66 | 0.006 | 100.0 | – | – | – | CC(C)C(NC(=O)c1cn(-c2c(F)cc(F)cc2F)c2nc(N3C[C@@H](O)CC3=O)ccc2c1=O)C(F)(F)F (single isomer, unassigned) [Example 528]
37 | 0.009 | 100.0 | – | – | – | O=C(N[C@@H](C1CC1)C(F)(F)F)c1cn(-c2c(F)cc(F)cc2Cl)c2nc(N3C[C@@H](O)[C@H](O)C3)ccc2c1=O (single isomer, unassigned) [Example 548]
49 | 0.013 | – | 97.5 | – | – | CC(C)C(NC(=O)c1cn(-c2c(F)cc(F)cc2F)c2nc(N3C[C@@H](O)[C@H](O)C3)ccc2c1=O)C(F)(F)F (single isomer, unassigned) [Example 553]
54 | 0.01 | 94.5 | – | – | – | CC(C)C(NC(=O)c1cn(-c2c(F)cc(F)cc2F)c2nc(N3C[C@@H](O)[C@H](O)C3)ccc2c1=O)C(F)(F)F (single isomer, unassigned) [Example 554]
44 | 0.011 | – | 100 | – | – | CCC(NC(=O)c1cn(-c2ccc(F)cc2F)c2nc(N3C[C@@H](O)CC3=O)ccc2c1=O)C(F)(F)C(F)(F)F (single isomer, unassigned) [Example 557]
62 | 0.004 | – | 95 | – | – | O=C(NC(c1ccccc1Cl)C(F)(F)F)c1cn(-c2c(F)cc(F)cc2F)c2nc(N3C[C@@H](O)[C@H](O)C3)ccc2c1=O (single isomer, unassigned) [Example 561]
40 | 0.01 | 100.0 | – | – | – | O=C(NC(c1ccccc1Cl)C(F)(F)F)c1cn(-c2c(F)cc(F)cc2F)c2nc(N3C[C@@H](O)[C@H](O)C3)ccc2c1=O (single isomer, unassigned) [Example 562]
29 | 0.017 | 100.0 | – | – | – | CCC(COC(F)(F)F)NC(=O)c1cn(-c2c(F)cc(F)cc2F)c2nc(N3C[C@@H](O)[C@H](O)C3)ccc2c1=O (single isomer, unassigned) [Example 578]
32 | 0.005 | – | 100 | – | – | O=C(NC(CC(F)(F)F)C(F)(F)F)c1cn(-c2c(F)cc(F)cc2F)c2nc(N3C[C@@H](O)CC3=O)ccc2c1=O (single isomer, unassigned) [Example 607]
44 | 0.01 | 100.0 | – | – | – | CC[C@H](NC(=O)c1cn(-c2c(F)cc(F)cc2F)c2nc(N3CC(O)C4(CC4)C3)ccc2c1=O)C(F)(F)F (single isomer, unassigned) [Example 621]
– | – | – | – | 25 | 0.063 | CCC(NC(=O)c1cn(-c2ccc(F)cc2F)c2nc(N3CCN(C(=O)OC)CC3)ccc2c1=O)C(F)(F)F (single isomer, unassigned; enantiomer a) [Example 24, ent-Methyl 4-{8-(2,4-difluorophenyl)-5-oxo-6-[(1,1,1-trifluorobutan-2-yl)carbamoyl]-5,8-dihydro-1,8-naphthyridin-2-yl}piperazine-1-carboxylate (Enantiomer A)]
– | – | – | – | 20 | 0.084 | CCC(NC(=O)c1cn(-c2ccc(F)cc2F)c2nc(N3CCN(C(=O)OC)CC3)ccc2c1=O)C(F)(F)F (single isomer, unassigned; enantiomer b) [Example 25, ent-Methyl 4-{8-(2,4-difluorophenyl)-5-oxo-6-[(1,1,1-trifluorobutan-2-yl)carbamoyl]-5,8-dihydro-1,8-naphthyridin-2-yl}piperazine-1-carboxylate (Enantiomer B)]
– | – | – | – | 7 | 0.01 | CN(C)c1ccc2c(=O)c(C(=O)NC(C(C)(C)C)C(F)(F)F)cn(-c3ccc(F)cc3F)c2n1 (stereo in doubt) [Example 132, 1-(2,4-Difluorophenyl)-7-(dimethylamino)-4-oxo-N-[(2S)-1,1,1-trifluoro-3,3-dimethylbutan-2-yl]-1,4-dihydro-1,8-naphthyridine-3-carboxamide]
– | – | – | – | 33 | 0.153 | CCC(NC(=O)c1cn(-c2ccc(F)cc2F)c2nc(N3CCC(O)C3)ccc2c1=O)C(F)(F)F (stereo in doubt) [Example 218, 1-(2,4-Difluorophenyl)-7-[3-hydroxypyrrolidin-1-yl]-4-oxo-N-[(2S)-1,1,1-trifluorobutan-2-yl]-1,4-dihydro-1,8-naphthyridine-3-carboxamide]
– | – | – | – | 36 | 0.006 | CC(C)(C)C(NC(=O)c1cn(-c2c(F)cc(F)cc2F)c2nc(N3CCNC3=O)ccc2c1=O)C(F)(F)F (stereo in doubt) [Example 360, 4-Oxo-7-(2-oxoimidazolidin-1-yl)-N-[(2S)-1,1,1-trifluoro-3,3-dimethylbutan-2-yl]-1-(2,4,6-trifluorophenyl)-1,4-dihydro-1,8-naphthyridine-3-carboxamide]
– | – | – | – | 30 | 0.017 | O=C(NC12CC3CC(CC(C3)C1)C2)c1cn(-c2ccc(F)cc2F)c2nc(N3CC[C@@H](F)[C@H](O)C3)ccc2c1=O [Example 3, 1-(2,4-Difluorophenyl)-7-[(3R,4R)-4-fluoro-3-hydroxypiperidin-1-yl]-4-oxo-N-(tricyclo[3.3.1.1^3,7]dec-1-yl)-1,4-dihydro-1,8-naphthyridine-3-carboxamide]
– | – | – | – | 30 | 0.024 | COC(=O)N1CCN(c2ccc3c(=O)c(C(=O)NC45CC6CC(CC(C6)C4)C5)cn(-c4ccc(F)cc4F)c3n2)CC1 [Example 4, Methyl 4-[8-(2,4-difluorophenyl)-5-oxo-6-(tricyclo[3.3.1.1^3,7]dec-1-ylcarbamoyl)-5,8-dihydro-1,8-naphthyridin-2-yl]piperazine-1-carboxylate]
– | – | – | – | 15 | 0.034 | O=C(NC12CC3CC(CC(C3)C1)C2)c1cn(-c2ccc(F)cc2F)c2nc(N3CCC(O)(O)C(F)(F)C3)ccc2c1=O [Example 6, 7-(3,3-Difluoro-4,4-dihydroxypiperidin-1-yl)-1-(2,4-difluorophenyl)-4-oxo-N-(tricyclo[3.3.1.1^3,7]dec-1-yl)-1,4-dihydro-1,8-naphthyridine-3-carboxamide]
– | – | – | – | 34 | 0.034 | O=C(NC12CC3CC(CC(C3)C1)C2)c1cn(-c2ccc(F)cc2F)c2nc(N3CCC(O)(O)[C@H](F)C3)ccc2c1=O [Example 7, 1-(2,4-Difluorophenyl)-7-[(3R)-3-fluoro-4,4-dihydroxypiperidin-1-yl]-4-oxo-N-(tricyclo[3.3.1.1^3,7]dec-1-yl)-1,4-dihydro-1,8-naphthyridine-3-carboxamide]
– | – | – | – | 12 | 0.06 | N#CC1CCCN(c2ccc3c(=O)c(C(=O)NC45CC6CC(CC(C6)C4)C5)cn(-c4ccc(F)cc4F)c3n2)C1 (stereo not shown) [Example 10, 7-(3-Cyanopiperidin-1-yl)-1-(2,4-difluorophenyl)-4-oxo-N-(tricyclo[3.3.1.1^3,7]dec-1-yl)-1,4-dihydro-1,8-naphthyridine-3-carboxamide]
– | – | – | – | 10 | 0.061 | C[C@@H]1C[C@H](F)CN1c1ccc2c(=O)c(C(=O)NC34CC5CC(CC(C5)C3)C4)cn(-c3ccc(F)cc3F)c2n1 [Example 11, 1-(2,4-Difluorophenyl)-7-[(2R,4S)-4-fluoro-2-methylpyrrolidin-1-yl]-4-oxo-N-(tricyclo[3.3.1.1^3,7]dec-1-yl)-1,4-dihydro-1,8-naphthyridine-3-carboxamide]
– | – | – | – | 6 | 0.071 | O=C(NC12CC3CC(CC(C3)C1)C2)c1cn(-c2ccc(F)cc2F)c2nc(N3CCC4(C3)CC4(F)F)ccc2c1=O (stereo not shown) [Example 13, 7-(1,1-Difluoro-5-azaspiro[2.4]hept-5-yl)-1-(2,4-difluorophenyl)-4-oxo-N-(tricyclo[3.3.1.1^3,7]dec-1-yl)-1,4-dihydro-1,8-naphthyridine-3-carboxamide]

SMILES | Cooperativity (alpha factor) (human M2 receptor [1]; [3]) | EC50 (human M2 receptor [2]; [4]) [µM] | Efficiency (human M2 receptor [2]; M2-GIRK1/4 reporter cells) [%] | Emax (human M2 receptor [2]; M2-GIRK1/4 reporter cells) [%] | Cooperativity (alpha factor) (human M2 receptor [1]; [5]) | EC50 (human M2 receptor [2]; [6]) [µM]
O=C(NC12CC3CC(CC(C3)C1)C2)c1cn(-c2ccc(F)cc2F)c2nc(N3CC4C(C3)C4(F)F)ccc2c1=O (stereo not shown) [Example 2, 7-(6,6-Difluoro-3-azabicylco[3.1.0]hex-3-yl)-1-(2,4-difluorophenyl)-4-oxo-N-(tricyclo[3.3.1.1^3,7]dec-1-yl)-1,4-dihydro-1,8-naphthyridine-3-carboxamide] | – | – | – | – | 24 | 0.017
O=C(NC12CC3CC(CC(C3)C1)C2)c1cn(-c2ccc(F)cc2F)c2nc(N3CCCC[C@H]3CO)ccc2c1=O [Example 15, 1-(2,4-Difluorophenyl)-7-[(2S)-2-(hydroxymethyl)piperidin-1-yl]-4-oxo-N-(tricyclo[3.3.1.1^3,7]dec-1-yl)-1,4-dihydro-1,8-naphthyridine-3-carboxamide] | – | – | – | – | 8 | 0.085
